Source: the NIST ThermoML archive (doi:10.1016/j.jct.2019.02.004)
Numbers after ± are expanded uncertainties.

Experiments:
[1] = Molar enthalpy of transition or fusion; conditions: Crystal; DSC
[2] = Crystal; DTA

Structure (SMILES): CC(=O)Nc1ccc(Cl)cc1 [N(4-chlorophenyl)ethanamide]
- Molar enthalpy of transition or fusion [1]: 6.49 ± 0.234 kcal/mol
- Normal melting temperature [2]: 175.7 ± 1.1 °C
